Legend:
Wistar rats = test: Adjuvant induced arthritis (AA) of rat, paw oedema; format: in vivo
Protocol: Negative control (AA+NS): […] positive control (AA+Dex): dexamethasone, i.p., 0.067 mg/kg/day. Vehicle control (AA+PEG400): […] CAI (AA+CAI): 20 mg/ml CAI, ig, 0.1 ml/100 g/day (20 mg/kg/day). Combination (AA+CAI+Dex): dexamethasone, 0.067 mg/kg/day (i.p.) plus CAI 20 mg/kg/day (p.o.). Normal volumes of left and right hind paw were measured before adjuvant injection. […]

rats = test: Granulomatous tissue formation (implanted tampon); format: in vivo
Protocol: 44 rats (160 g) were randomly divided into 4 groups (11 rats/group). Animals were slightly anaesthetized by ether. After sterilization, the groin was cut bilaterally. A sterile tampon (50 mg) was implanted (sc). On the same day, the following treatments were administered: N.S. (i.p., control group), 0.067 mg/kg/day dexamethasone (i.p., positive control), 20 mg/kg/day CAI (p.o., dissolved in PEG 400, test group) and 0.067 mg/kg/day dexamethasone+20 mg/kg/day CAI (p.o., dissolved in PEG 400, combination group). After 7 days administration, the animals were sacrificed. The cotton was removed. The granulomatous tissue was dried at 60° C. oven for 12 hr and weighed. Increment in the dry weight of the tissue was taken as measure of granuloma formation. The Increment was adjusted for respective body weight, and the mean value for each group was calculated.

Kunming mice [1] = test: Effect of CAI on drug addiction caused by morphine (naloxone-induced jumping); settings: mouse, in vivo
Protocol: 160 Kunming mice (18-22 g, half male and half female) were divided into 4 groups randomly, with 40 mice per group:
Control group with solvent, PEG400/N.S. (10 μl/g/day PEG400, (ig), 4 days);
Group treated with CAI, CAI/N.S. (CAI is resolved in PEG400 to reach a final concentration of […], 20 mg CAI/kg/day was administered (ig) for 4 days, N.S. was taken according to morphine administration in table 1);
Group treated with morphine, PEG400/morphine (10 μl/g/day PEG400 was administered (ig) for 4 days, morphine was administered according to the table below);
4 hours after the morphine administration on the fifth day, animals of each group was injected (ip) with 1 mg/kg naloxone and then put into a tank (5000 ml) immediately. The jump frequency in 30 minutes was recorded. Two-factor analysis of variance by SPSS was performed to analyse the experiment results.

IL-1β = IL-1β levels in paw tissue and serum of adjuvant arthritis rat (ELISA); format: in vivo; settings: AA rats, day 29, ELISA
Protocol: The adjuvant arthritis rat was prepared as described in example 8. Treatment was performed as described in example 8. Blood was collected from eve socket on day 29 and left in room temperature to allow coagulating. Then serum was separated by centrifugation at 3000 rpm for 10 min and kept in −20° C. After animals were sacrificed, the subcutaneous tissue of the right hind paw and that surrounding the tarsotibial joints was removed, broke into pieces, and placed in 5 ml normal saline (0.9%). The tissues were homogenized in a high speed homogenizer. Then the homogenate was centrifuged at 4° C. and 10,000 rpm for 15 min. The supernatants were collected and stored at −20° C. until further analysis.
IL-1β and TNF-α levels in paw tissue and serum were measured using specific rat ELISA kits according to the manufacturer's instructions.

Kunming mice [2] = test: Croton oil-induced ear edema mouse model; format: in vivo
Protocol: Male Kunming mice, weighted 18-22 g, were randomly divided to the following experiment groups, 20 mice/group:
Negative control: normal saline was injected (ig), 0.1 ml/10 g/day for 3 consecutive days.
Vehicle control: PEG400 was injected (ig), […] for 3 consecutive days.
Positive control: Dexamethasone (0.2 mg/ml) was injected (ip), 0.1 ml/10 g/day for 3 consecutive days.
Test group: CAI or its analogs (2 mg/ml, analogs are as described in example 5) was administered (ig), 0.1 ml/10 g/day for 3 consecutive days.
8 hours after the last administration, 20 μl of croton oil solution (2%) was applied to the right ear of each mouse. The left ear remained untreated as control. The animals were sacrificed 4 hours later, and a piece of tissue was punched from the same position of the treated and untreated ear. The tissues were weighed on a 0.1 mg balance. The difference in weight between the two pieces of tissue of each mouse was taken as a measure of swelling intensity.

Kunming mice [3] = test: Radiant heat test (tail-flick); format: in vivo
Protocol: The radiant heat dolorimeter (Collumbus Instruments) is used in this model with the tail-flick mode and the exposure rate of 20. The latency periods (TFL) starting from the beginning of exposure to the tail-flick responses were recorded as the pain threshold. The exposure time lasted for 16 seconds.
Kunming mice (18-22 g, male) are tested for the basic pain threshold before the test with drug administration, and those with pain threshold longer than 16 seconds are excluded. The selected mice are divided into 4 groups with 15 animals per group.
Control group with dissolvent: 10 μl PEG400 was administered (ig) twice with the interval of 24 hours. The pain intensity test was carried out 8 hours after the second administration. 200 μl N.S. was injected (sc) 5 minutes before the test.
Morphine/PEG400 group: 10 μl PEG400 was administered (ig) twice with the interval of 24 hours. The pain intensity test was carried out 8 hours after the second administration. Morphine (2 mg/kg body weight) was injected (sc) 5 minutes before the test.
CAI/N.S. group: CAI (20 mg/kg body weight, 2 mg/ml) was administered (ig) twice with the interval of 24 hours. The pain intensity test was carried out 8 hours after the second administration. 200 μl N.S. was injected (sc) 5 minutes before the test.
The pain intensity test was carried out 8 hours after the second administration, morphine (2 mg/kg body weight) was injected (sc) 5 minutes before the test.
The pain threshold of each mouse was tested before and after morphine or N.S. injection. The values after drug administration minus those before drug administration were considered to be the changing index of pain threshold.

SMILES: NC(=O)c1nnn(Cc2cc(Cl)c(C(=O)c3ccc(Cl)cc3)c(Cl)c2)c1N [CAI, 5-amino-1-[3,5-dichloro-4-(4-chlorobenzoyl chloride)benzyl]-1H-1,2,3-triazole-4-carboxamide]
- Primary paw oedema (%), mean ± std (Wistar rats; 1 d, CAI 20 mg/kg/day ig, Dex 0.067 mg/kg/day i.p.): 116.2 ± 17.6 %
- Primary paw oedema (%), mean ± std (Wistar rats; 2 d): 131.9 ± 23.0 %
- Primary paw oedema (%), mean ± std (Wistar rats; 5 d): 122.4 ± 12.4 %
- Primary paw oedema (%), mean ± std (Wistar rats; 8 d): 121.6 ± 21.6 %
- Primary paw oedema (%), mean ± std (Wistar rats; 11 d): 129.3 ± 23.5 %
- Primary paw oedema (%), mean ± std (Wistar rats; 14 d): 112.0 ± 15.7 %
- Secondary paw oedema (%), mean ± std (Wistar rats; 14 d, right hind paw): 2.3 ± 1.0 %
- Primary paw oedema (%), mean ± std (Wistar rats; 17 d): 104.3 ± 20.7 %
- Secondary paw oedema (%), mean ± std (Wistar rats; 17 d): 3.1 ± 0.8%
- Primary paw oedema (%), mean ± std (Wistar rats; 20 d): 92.2 ± 16.0 %
- Secondary paw oedema (%), mean ± std (Wistar rats; 20 d): 8.8 ± 3.2 %
- Primary paw oedema (%), mean ± std (Wistar rats; 23 d): 92.4 ± 15.4 %
- Secondary paw oedema (%), mean ± std (Wistar rats; 23 d): 8.6 ± 2.3 %
- Primary paw oedema (%), mean ± std (Wistar rats; 26 d): 88.6 ± 13.4 %
- Secondary paw oedema (%), mean ± std (Wistar rats; 26 d): 8.6 ± 1.9 %
- Primary paw oedema (%), mean ± std (Wistar rats; 29 d): 86.9 ± 23.1 %
- Secondary paw oedema (%), mean ± std (Wistar rats; 29 d): 6.5 ± 2.7 %
- Effect on paw oedema of AA rats (in words) (Wistar rats; compared with control group, two-way ANOVA): inhibits primary and secondary paw oedema
- granulomatous tissue:bady weight ratio (mean ± std) (rats; 7 days, CAI 20 mg/kg/day p.o., dexamethasone 0.067 mg/kg/day i.p.): 0.060 ± 0.00479
- Effect on granulomatous tissue formation (in words) (rats; two-way ANOVA): potent in inhibiting granulomatous tissue formation
- Addiction / withdrawal syndrome (in words) (Kunming mice [1]): does not cause addiction
- IL-1β levels in paw tissue and serum (in words) (IL-1β): significantly reduced
- Swelling intensity (mg) mean ± std (Kunming mice [2]; ear weight difference 4 hours after 2% croton oil, CAI/analogs 2 mg/ml ig, dexamethasone 0.2 mg/ml ip, 0.1 ml/10 g/day, 3 days): 7.8 ± 0.2 mg
- Anti-inflammatory effect in ear edema model (in words) (Kunming mice [2]; mouse, in vivo): obvious anti-inflammatory effects
- Analgesic effect in radiant heat test (in words) (Kunming mice [3]; compared with the control group): neither have obvious analgesic effect alone
- Pain threshold change (seconds, mean ± std) (Kunming mice [3]; tail-flick latency after minus before drug, CAI 20 mg/kg ig twice, morphine 2 mg/kg sc): 2.56 ± 2.62 s
